Experimental data published in US9072729B2, “Method for treating fibrosis and cancer with imidazolium and imidazolinium compounds” (Agency for Science, Technology and Research, priority 2008, dated 2015).

Experiments:
[1] = system: HLE cells; assay: Annexin V staining and flow cytometry, HLE; type: cell-based, human; details: 24 hr, TRAIL 100 ng/ml
Description: (§1) FIG. 22. […] HLE or HepG2 cells were incubated with DBZIM of various concentrations for 6 hr, and assayed for caspase 3/7 activity and LDH releasing (expressed as % toxicity). DBZIM induced apoptosis as characterized by annexin V staining using flow cytometer in HLE (E) and HepG2 (F). Scatter plot and histogram gave the representative information on the cell population distribution while bar graphs quantified the percentage of apoptotic cells from the histogram. HLE and HepG2 cells were treated by DBZIM of various concentrations for 24 hr before harvesting for annexin V staining and flow cytometric analysis.
HLE and HepG2 cells were treated with various concentrations of DBZIM or TRAIL (100 ng/ml) for 24 hr, harvested and labeled with Annexin V-FITC (BioVision, CA, USA). The labeled cells were analysed by flow cytometry FACSCalibur ([…], NJ, USA) and CellQuest software. Cells showing green staining in the plasma membrane were considered as apoptotic cells.

[2] = system: C6; assay: Proliferation assay (MTS), glioma C6; type: cell-based; details: Rattus norvegicus, 48 h; C6, determined at day 2
Description: FIG. 30. DBZIM inhibited cell proliferation in glioma cell line C6 (A) and U87 MG (C) and induced caspase 3/7 activity in C6 (B) and U87 MG (D). C6 or U87 cells were incubated with DBZIM of various concentrations for 48 hr for proliferation assay and 6 hr for caspase 3/7 activation assay. Proliferation was measured using MTS kit from Promega and expressed as relative cell proliferation with control group was normalized to 1. Caspase 3/7 activity was quantified using a kit from Promega and also expressed as relative caspase 3/7 activity of treated groups over control group.
Proliferation of Glioma cell lines: U87 MG and C6 under the treatment of DBZIM was examined using 3-(4,5-dimethylthiazol-2-yl)-5-(3-carboxymethoxyphenyl)-2-(4-sulfophenyl)-2H-tetrazolium (MTS) based proliferation assay kit (Promega, Wis., USA). MTS reagent was added to the control and treated cells (after 48 hr) directly and the absorbance signal was read at 490 nm using a Tecan Safire II plate reader.

[3] = system: phospho-Ser473-Akt; assay: Western blot of phosphorylated Akt; type: cell-based, human; details: H1299, MCF-7, AGS and MKN28, IC50 concentration, 24 h to 72 h
Source text: FIG. 32. DBZIM inhibits phosphorylation of Akt. […] Time course inhibition of phosphorylated-AKT was shown by Western blot. β-actin was used as an internal loading control.
The Akt (also known as protein kinase B) kinase signaling pathway is activated in a variety of carcinomas of lung, breast, colon, and pancreatic and other tumor types through over-expressing the Akt protein itself and/or increasing phosphorylation of Akt. This study provided evidence that DBZIM is particularly efficacious in inducing apoptosis in AGS, H1299 and MCF-7 cells through a mechanism involving the reduction in the levels of the, phospho-AKT.

[4] = system: HLE cells; assay: Cell based caspase 3/7 and LDH assays, HLE; design: species or system human; details: 6 hr
Description: as §1
Capspase 3/7 activity and lactate dehydrogenase (LDH) release were measured by Fluorometric assays (Promega Corp., WI, USA). The HCC cells were cultured in 96-well plate and treated with DBZIM of various concentrations for 6 hr before assays. For caspase 3/7 assay, medium was removed and substrate buffer was added to lyse the cell and react with caspase 3/7 to give rise to fluorescence signal which was read at Ex=485 nm and Em=530 nm on a Tecan Safire II plate reader after 1 hr incubation. The caspase 3/7 activity of sample cells with the compound treatment was expressed as relative fold change after normalizing to the control cells. The LDH assay (indicative of membrane integrity) was performed using a Kit from Promega Corp according to manufactor's instructions.

[5] = system: HLE cells; assay: HLE cell proliferation assay (cell count, BrdU; HCS); type: cell-based, human; details: 0-1.25 mM, 48 h
Description: FIG. 21. DBZIM inhibited cell proliferation and disrupted cell cycle in HLE cells (A). DBZIM inhibited HCC cell proliferation. HLE cells were seeded at a density of 5000 cells/well in 96-well plate, and cultured for 18-24 h in 10% […] DMEM before the addition of various compounds (0-1.25 mM) in 10% FBS DMEM for 48 h of proliferation before assaying. Cell count was calculated based on Hoechst dye staining and BrdU incorporation was based on the total fluorescence intensity of antibody staining. (B). DBZIM arrested HCC cells at G0/G1 phase. HLE cells were incubated with DBZIM (0, 1, 3 mM) for 24 hr before fixation and DAPI staining for DNA content (2N vs. 4N) determination.
HLE cells were grown, treated by compounds in 6 replicates for 48 hr in a 96-well plate. Cells were then fixed by using 4% paraformaldehyde and stained by DAPI and BrdU antibody using Hitkit (Thermo Scientific, IL, USA). Cells were imaged and analyzed on ArrayScan VTI HCS reader (Thermal Scientific, PA, USA). Cell numbers were counted based on nuclear staining and BrdU incorporation was determined and expressed as percentage of positively stained cells.
The effect of DBZIM on the HCC cell proliferation and cell cycle was characterized on a high-content screening (HCS) platform. Under each concentration, at lease 1000 cells were analyzed. […]

[6] = system: survivin in HLE cells; assay: Survivin translocation assay (HCS); type: cell-based, human; details: 24 hr
Description: FIG. 25. DBZIM induced nucleus to cytoplasm translocation of survivin protein. (A) Representative immunocytostaining images of HLE cells treated by DBZIM (0 and 1.0 mM) for 24 hr. Arrows indicate the accumulation and the disappearance of survivin in the nucleus of the control and the DBZIM-treated cells, respectively. The images were acquired and analyzed using ArrayScan VTI HCS reader (Thermal Scientific, PA, USA) and Target Activation BioApplication software. (B) Quantitation of translocation event. Cells were grown in 96-well plate and treated by DBZIM of various concentrations for 24 hr before fixation and immunocytostaining for survivin. Lower value in “Cytoplasmic-Nuclear Difference” indicated a lower amount of cytoplasmic survivin.
HLE cells cultured in 96-well plate were treated with DBZIM for 24 hr before staining and imaging. Cells were then fixed and stained with antibodies against […] and Survivin. (Lab Vision Corp. CA, USA) and buffer reagent from Hitkit (Thermo Scientific, IL, USA). The cells were imaged and analyzed on ArrayScan VTI HCS reader (Thermal Scientific, PA, USA). Fluorescence intensity in the cytoplasmic and nuclear area was plotted for indication of cytoplasm to nucleus translocation.

[7] = dosage of 30 mg/kg (Lin et al. 2004); cited from earlier work

Molecule | apoptosis (annexin V staining) [1] | IC50 [2] [mM] | active form of Akt (phospho-Ser473-Akt) [3] | LDH release [4] | caspase 3/7 activity [4] | HLE cell proliferation (total cell number, BrdU positive cells) [5] | survivin translocation [6] | half life in rat blood [7] [h]
[Br-].c1ccc(Cn2cc[n+](Cc3ccccc3)c2)cc1 [DBZIM, 1,3-bisbenzylimidazolium bromide] | dose-dependently induced apoptosis | 1 | appreciable down-regulation | least affected | enhanced | inhibited the HLE cell proliferation | translocated from the nucleus to the cytoplasm | –
(−)-Epigallocatechin gallate [EGCG, reference compound] | – | – | – | – | – | – | – | ~1.2
